Measured values published in patent publication US10377902B2, “Crystallized red pigment, method of producing a recrystallized red pigment and a method for improving the appearance of or preventing wrinkles” (priority 2013, dated 2019).
Converted amounts (≈) assume the structure as drawn. “Also recorded” adds a separate entry of the source. Marks after values point to notes of the source that are not given here.

Columns and labels:
[1] = tested on: HUVEC (human umbilical vein endothelial cells); assay: Cell proliferation, VEGF-Induced (307900), antagonist mode; type: cell-based; details: concurrent batch 305353, antagonist, read-out: Concurrent IC50/EC50
Description: Measurement of proliferation inhibition activity of VEGF-Induced cell of vascular endothelial cells by purified red pigment from Saw palmetto.
The final concentration in the test was given as 100 μg/mL and 10 μg/mL.
HUVEC cells were incubated in air atmosphere of 5% CO2 at 37° C. The culture medium used was Endothelial Cell Growth Medium with 10% fetal bovine serum (FBS). The medium for assay was
M199 medium supplemented with 10% FBS and 10 μg/mL of Heparin.
Aliquots of HUVEC (1.1×10^5 cells/ well) were pre-seeded in the 96-well TC plate in an incubator at 5% CO2, 37° C. Test compound solution or vehicle (DMSO) was then added per well and incubated at 5% CO2, 37° C. for 20 minutes. Thereafter, VEGF165 (0.2 nM) was added and incubated for 48 hours. 48 hours later, the cells were washed with HBSS once. Then 5 μg/mL of the fluorescence reagent, CalceinAM dye (BD Biosciences, USA) was added and incubated for another 50 minutes. After incubation, fluorescence intensity was detected by Micro plate reader. More than 50% of suppression for VEGF165 induced proliferation was indicated for the significant antagonistic activity of the test reagent.

HuVEC cells = assay: Cytotoxicity / growth of vascular endothelial cells; type: cell-based, human; details: a few hundred micro mole level
Description: The growth activity of cells under exposure to NYG-1 was detected by using HuVEC cells which is an in vitro cell model. […] Further, suramin was used as a positive control.

[2] = tested on: Human umbilical vein endothelial cells (HUVEC); assay: Angiogenesis, Tube Formation (Assay#368000): HUVEC tube network on Matrigel; type: cell-based
Description: Following biological test results were conducted by Ricerca Bioscience, LLC (http://www.Ricerca.com.) under a contract (Assay#368000, Tumor, Angiogenesis, Tube Formation) with the crystalized red pigment prepared in Example 1.
Human umbilical vein endothelial cells (HUVEC) differentiate to capillary-like structures and form vessel network on Matrigel in the presence of endothelial cell growth supplements. The anti-angiogenic activity of a test compound can be assessed by observing continuity of vessel network compared with untreated control. Test compound (crystallized red pigment prepared in […]) was tested for an effect on anti-angiogenesis at five final concentrations of 100, 10, 1, 0.1 and 0.01 μg/mL.
The crystalized red pigment prepared in Example 1 was dissolved in 100% dimethyl sulfoxide (DMSO) and then diluted with sterile distilled water to obtain solutions of […] in 40% DMSO. The solutions were diluted 100-fold with culture medium to generate final concentrations of 0.01, 0.1, 1, 10 and 100 μg/mL.
HUVEC was purchased from American Type Culture Collection (ATCC CRL-1730). HUVEC cells were incubated in 5% CO2 atmosphere of at 37° C. The culture medium used was Endothelial Cell Growth Medium supplemented with 10v/v % fetal bovine serum and 1% antifungal antibiotic.
Matrigel matrix was thawed, kept on ice at 4° C. and 50μL of the matrix was transferred to each well of a 96-microwell culture plate. The plate was incubated at 37° C. for at least one hour to allow the matrix solution to solidify before treatment.
Aliquots of […] of HUVEC suspension (about 1.5×10^4 cells/well) were placed in the 96-well matrigel plate. Two microliters per well of test compound solution or vehicle (40% DMSO) was then added and incubated at 5% CO2, 37° C. for 18 hours (in duplicate). The final concentration of DMSO was 0.4%. The test compound was evaluated at concentrations of 100, 10, 1, 0.1 and 0.01 μg/mL. At the end of incubation, a tube network formed by endothelial cell in each wells was evaluated by photomicroscopy (magnification of 40×) and photographed. The total length of tube network was measured from each photograph (FIG. 1).
The reduction of the total length of tube network in test compound treatment to the total length of tube network in vehicle treatment control indicates anti-angiogenic activity. The minimum inhibitory concentration (MIC) and 50% inhibition concentration (IC50) were determined to assess effect of the test substance on anti-angiogenesis.

HuVECs = assay: Tube formation of HuVECs in the presence of VEGF; type: cell-based, human; details: 30 μM, not showing cytotoxicity
Description: In turn, whether NYG-1 can suppress angiogenesis ability of HuVECs was tested.

SMILES | IC50 [1] [µM] | cytotoxicity on HuVEC cells (HuVEC cells) | effect on tube formation (in words) ([2]; 30 μM) | effect on tube formation (in words) ([2]; 30 and 15 μM) | IC50 ([2]; Homo sapiens, HUVEC) [µM] | % Inhibition of total tube length (mean ± SEM) ([2]; suramin concentration 1 (head prints μg/mL)) [%] | % Inhibition of total tube length (mean ± SEM) ([2]; suramin concentration 3 (head prints μg/mL)) [%] | % Inhibition of total tube length (mean ± SEM) ([2]; suramin concentration 10 (head prints μg/mL)) [%] | % Inhibition of total tube length (mean ± SEM) ([2]; suramin concentration 15 (head prints μg/mL)) | % Inhibition of total tube length (mean ± SEM) ([2]; suramin concentration 30 (head prints μg/mL)) | MIC (minimum inhibitory concentration) ([2]; tube formation) [µM] | blood vessel formation (in words) (HuVECs)
Cc1cc(C)c(/C=C2\C(=O)Nc3ccccc32)[nH]1 [SU5416] | 0.12 |  |  |  |  |  |  |  |  |  |  | 
Cc1ccc(C(=O)Nc2ccc(S(=O)(=O)O)c3cc(S(=O)(=O)O)cc(S(=O)(=O)O)c23)cc1NC(=O)c1cccc(NC(=O)Nc2cccc(C(=O)Nc3cc(C(=O)Nc4ccc(S(=O)(=O)O)c5cc(S(=O)(=O)O)cc(S(=O)(=O)O)c45)ccc3C)c2)c1 [Suramin] |  | strong cytotoxicity | almost no tube formation; also recorded: completely inhibited | significant inhibition | 16 | 3 ± 4 | 4 ± 5 | 8 ± 1 | 42 ± 9^ab % | 100 ± 0^a % | 15 (≈ 19.5 µg/mL) | can suppress blood vessel formation
